# Source: PMC5421785, “Citrullination only infrequently impacts peptide binding to HLA class II MHC” (PLoS ONE, 2017)
# Where two headings read alike, the source gives them in different places. Square brackets hold non-standard residues; d marks the D form. Peptide text beside a SMILES is read from it. Cit = NC(=O)NCCC[C@H](N)C(=O)O
# Tests used:
# HLA-DRB1*04:01 = target: T1, HLA-DRB1*04:01 (Homo sapiens, UniProt P01903+P01911, A100K/A169T/F76Y/I96L/K127E/L162R/M171V/N62H/P40V/Q125Y/R42H/S133A/S149N/S66Y/V115G/V209L/W38E); experiment: HLA class II peptide binding, inhibition of radiolabeled peptide binding to purified MHC
# T1 construct: EBV transformed homozygous cell lines were used as sources of MHC molecules; endogenous in cells; host or cells: EBV transformed homozygous cell lines
# HLA-DRB1*01:01 = target: T2, HLA-DRB1*01:01 (Homo sapiens, UniProt P01903+P01911, A100R/D57E/F55L/F60I/F76Y/I96L/L162R/M171V/P40L/Q125E/R42F/V115G/Y59C); experiment: as above
# T2 construct: EBV transformed homozygous cell lines were used as sources of MHC molecules; endogenous in cells; host or cells: EBV transformed homozygous cell lines
# [1] = citrullinated 15-mer peptide (X = citrulline), purified HLA-DRB1*04:01, read-out: DRB1*04:01 binding capacity, Cit peptide (IC50 nM)
# [2] = ratio of WT IC50 to Cit IC50, >1 = citrullination increases binding
# [3] = citrullinated 15-mer peptide (X = citrulline), purified HLA-DRB1*01:01, read-out: DRB1*01:01 binding capacity, Cit peptide (IC50 nM)
# [4] = citrullinated 15-mer (X), purified MHC, inhibition of radiolabeled peptide binding, dash = IC50 >40,000 nM, read-out: DRB1*04:01 binding capacity, Cit peptide (IC50 nM)
# [5] = citrullinated 15-mer (X), purified MHC, inhibition of radiolabeled peptide binding, dash = IC50 >40,000 nM, read-out: DRB1*01:01 binding capacity, Cit peptide (IC50 nM)
Structure (SMILES),IC50 (HLA-DRB1*04:01; [1]),IC50 (HLA-DRB1*01:01; [3]),IC50 (HLA-DRB1*04:01; [4]),IC50 (HLA-DRB1*01:01; [5]),also measured
C[C@H](NC(=O)CNC(=O)[C@H](CCCCN)NC(=O)[C@@H]1CCCN1C(=O)CNC(=O)[C@H](CC(=O)O)NC(=O)[C@H](CCCCN)NC(=O)CNC(=O)[C@H](CO)NC(=O)[C@@H]1CCCN1C(=O)CN)C(=O)N[C@@H](CCCNC(N)=O)C(=O)NCC(=O)N[C@@H](CC(=O)O)C(=O)N[C@@H](CO)C(=O)O [GPSGKDGPKGAXGDS] (H-GPSGKDGPKGA[Cit]GDS-OH; N-terminus and C-terminus assumed),> 40000 nM,> 40000 nM,,,"DRB1*04:01 binding capacity, WT/cit ratio (HLA-DRB1*04:01; [2]): 1.0; DRB1*01:01 binding capacity, WT/cit ratio (HLA-DRB1*01:01; [2]): 1.0"
CC(C)[C@H](NC(=O)CNC(=O)[C@@H](NC(=O)[C@@H]1CCCN1C(=O)CN)[C@@H](C)O)C(=O)N[C@H](C(=O)NCC(=O)N1CCC[C@H]1C(=O)N[C@@H](CCCCN)C(=O)NCC(=O)N[C@@H](C)C(=O)N[C@@H](CCCNC(N)=O)C(=O)NCC(=O)N[C@@H](C)C(=O)N[C@@H](CCC(N)=O)C(=O)O)[C@@H](C)O [GPTGVTGPKGAXGAQ] (H-GPTGVTGPKGA[Cit]GAQ-OH),> 40000 nM,569 nM,,,
N=C(N)NCCC[C@H](NC(=O)[C@H](CCC(=O)O)NC(=O)CNC(=O)[C@H](CCCNC(N)=O)NC(=O)[C@@H]1CCCN1C(=O)CN)C(=O)NCC(=O)N[C@@H](Cc1ccccc1)C(=O)N1CCC[C@H]1C(=O)NCC(=O)N[C@@H](CCC(=O)O)C(=O)N[C@@H](CCCNC(=N)N)C(=O)NCC(=O)N[C@@H](CO)C(=O)N1CCC[C@H]1C(=O)O [GPXGERGFPGERGSP] (H-GP[Cit]GERGFPGERGSP-OH),> 40000 nM,23400 nM,,,
CC(C)C[C@H](NC(=O)[C@H](C)NC(=O)[C@H](CO)NC(=O)CN)C(=O)N[C@@H](CCCNC(=N)N)C(=O)N1CCC[C@H]1C(=O)N[C@@H](CO)C(=O)N[C@H](C(=O)N[C@@H](CO)C(=O)N[C@@H](CCCNC(N)=O)C(=O)N[C@@H](CO)C(=O)N[C@@H](CC(C)C)C(=O)N[C@@H](Cc1ccc(O)cc1)C(=O)N[C@@H](C)C(=O)N[C@@H](CO)C(=O)O)[C@@H](C)O [GSALRPSTSXSLYAS],,,803 nM,25 nM,
CC(C)C[C@H](NC(=O)[C@H](C)NC(=O)[C@H](CO)NC(=O)CN)C(=O)N[C@@H](CCCNC(N)=O)C(=O)N1CCC[C@H]1C(=O)N[C@@H](CO)C(=O)N[C@H](C(=O)N[C@@H](CO)C(=O)N[C@@H](CCCNC(=N)N)C(=O)N[C@@H](CO)C(=O)N[C@@H](CC(C)C)C(=O)N[C@@H](Cc1ccc(O)cc1)C(=O)N[C@@H](C)C(=O)N[C@@H](CO)C(=O)O)[C@@H](C)O [GSALXPSTSRSLYAS],,,1550 nM,12 nM,
CC(C)C[C@H](NC(=O)[C@H](CO)NC(=O)[C@H](Cc1ccccc1)NC(=O)[C@H](CC(=O)O)NC(=O)[C@@H](NC(=O)[C@H](CO)NC(=O)[C@H](CC(=O)O)NC(=O)[C@H](CCC(N)=O)NC(=O)[C@H](CC(C)C)NC(=O)[C@H](CC(C)C)NC(=O)[C@H](CCCNC(N)=O)NC(=O)[C@@H](NC(=O)CN)C(C)C)C(C)C)C(=O)N[C@@H](C)C(=O)N[C@@H](CC(=O)O)C(=O)O [GVXLLQDSVDFSLAD],,,918 nM,541 nM,
CC[C@H](C)[C@H](N)C(=O)N[C@@H](CC(=O)O)C(=O)N[C@H](C(=O)N[C@@H](CC(=O)O)C(=O)N[C@H](C(=O)N[C@@H](CO)C(=O)N[C@@H](CCCCN)C(=O)N1CCC[C@H]1C(=O)N[C@@H](CC(=O)O)C(=O)N[C@@H](CC(C)C)C(=O)N[C@H](C(=O)N[C@@H](C)C(=O)N[C@@H](C)C(=O)N[C@@H](CC(C)C)C(=O)N[C@@H](CCCNC(N)=O)C(=O)O)[C@@H](C)O)C(C)C)C(C)C [IDVDVSKPDLTAALX] (H-IDVDVSKPDLTAAL[Cit]-OH),,,23500 nM,935 nM,
CC[C@H](C)[C@H](N)C(=O)N[C@@H](CCCNC(=N)N)C(=O)N[C@@H](C)C(=O)N[C@@H](CCC(=O)O)C(=O)NCC(=O)N[C@@H](CC(N)=O)C(=O)N[C@@H](CO)C(=O)N[C@@H](CCCNC(N)=O)C(=O)N[C@@H](Cc1ccccc1)C(=O)N[C@H](C(=O)N[C@@H](Cc1ccc(O)cc1)C(=O)N[C@H](C(=O)N[C@@H](C)C(=O)N[C@@H](CC(C)C)C(=O)N[C@@H](CCCCN)C(=O)O)[C@@H](C)O)[C@@H](C)O [IRAEGNSXFTYTALK] (H-IRAEGNS[Cit]FTYTALK-OH),,,,,"IC50 (HLA-DRB1*04:01; citrullinated peptide as listed (X at Cit position), read-out: DRB1*04:01 binding capacity Cit peptide (IC50 nM)): 849 nM; IC50 (HLA-DRB1*01:01; citrullinated peptide as listed (X at Cit position), read-out: DRB1*01:01 binding capacity Cit peptide (IC50 nM)): 0.6 nM; IC50 (HLA-DRB1*01:01; value of the wild-type (non-citrullinated) counterpart of the listed peptide, read-out: DRB1*01:01 binding capacity WT peptide (IC50 nM)): 1.3 nM"
CC[C@H](C)[C@H](N)C(=O)N[C@@H](CO)C(=O)N[C@@H](CC(C)C)C(=O)N1CCC[C@H]1C(=O)N[C@@H](CC(C)C)C(=O)N1CCC[C@H]1C(=O)N[C@@H](CC(N)=O)C(=O)N[C@@H](Cc1ccccc1)C(=O)N[C@@H](CO)C(=O)N[C@@H](CO)C(=O)N[C@@H](CC(C)C)C(=O)N[C@@H](CC(N)=O)C(=O)N[C@@H](CC(C)C)C(=O)N[C@@H](CCCNC(N)=O)C(=O)N[C@@H](CCC(=O)O)C(=O)O [ISLPLPNFSSLNLXE],4480 nM,309 nM,,,
